Common to all, as to test: CXCR6 receptor antagonists, dose response, cell-based, beta-arrestin, DiscoveRx, APJ panel, uHTS hits (AID 624129)
Assay [1] concerns the target Apelin receptor (Homo sapiens) (UniProt P35414). The conditions noted are these: CXCR6 beta-arrestin (DiscoveRx) antagonist cell assay, APJ.
Assay [2] concerns the target C-X-C chemokine receptor type 6 (Homo sapiens) (UniProt O00574). The settings on record: CXCR6 beta-arrestin (DiscoveRx) antagonist cell assay; for inhibition: CXCR6, run 1, dose range 2, at 80 µM (top of the series).
The target of assay [3] is Beta-galactosidase (Escherichia coli) (UniProt Q8VNN2). The settings on record: CXCR6 beta-arrestin (DiscoveRx) antagonist cell assay, b-galactosidase.
Assay [4] concerns the target C-C chemokine receptor type 6 (Homo sapiens) (UniProt P51684). The settings on record: CXCR6 beta-arrestin (DiscoveRx) antagonist cell assay.
[5] abbreviates: dose range 1, mean IC50 across replicates.
Setting [6] is: CXCR6, dose range 1, mean IC50 across replicates.
Where [7] appears, read: CCR6, dose range 1, mean IC50 across replicates.

The source made the active and inactive calls. How the calls were made is not given here.

Usually IC50 stands for the concentration that gives 50% inhibition. Broadly, the inhibition is the change of the read-out against control, counted positive when it falls.

C-X-C chemokine receptor type 6 (Homo sapiens), sequence (O00574 whole entry, looked up): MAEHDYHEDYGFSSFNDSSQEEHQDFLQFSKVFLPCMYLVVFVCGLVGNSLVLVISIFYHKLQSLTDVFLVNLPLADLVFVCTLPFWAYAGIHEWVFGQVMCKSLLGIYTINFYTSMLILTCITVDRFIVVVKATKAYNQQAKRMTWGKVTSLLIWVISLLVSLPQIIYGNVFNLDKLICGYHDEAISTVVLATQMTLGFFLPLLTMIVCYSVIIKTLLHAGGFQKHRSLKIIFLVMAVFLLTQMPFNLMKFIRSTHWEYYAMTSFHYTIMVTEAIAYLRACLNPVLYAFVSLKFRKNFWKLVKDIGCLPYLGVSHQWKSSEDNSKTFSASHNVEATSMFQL
Beta-galactosidase (Escherichia coli), sequence (Q8VNN2 whole entry, looked up): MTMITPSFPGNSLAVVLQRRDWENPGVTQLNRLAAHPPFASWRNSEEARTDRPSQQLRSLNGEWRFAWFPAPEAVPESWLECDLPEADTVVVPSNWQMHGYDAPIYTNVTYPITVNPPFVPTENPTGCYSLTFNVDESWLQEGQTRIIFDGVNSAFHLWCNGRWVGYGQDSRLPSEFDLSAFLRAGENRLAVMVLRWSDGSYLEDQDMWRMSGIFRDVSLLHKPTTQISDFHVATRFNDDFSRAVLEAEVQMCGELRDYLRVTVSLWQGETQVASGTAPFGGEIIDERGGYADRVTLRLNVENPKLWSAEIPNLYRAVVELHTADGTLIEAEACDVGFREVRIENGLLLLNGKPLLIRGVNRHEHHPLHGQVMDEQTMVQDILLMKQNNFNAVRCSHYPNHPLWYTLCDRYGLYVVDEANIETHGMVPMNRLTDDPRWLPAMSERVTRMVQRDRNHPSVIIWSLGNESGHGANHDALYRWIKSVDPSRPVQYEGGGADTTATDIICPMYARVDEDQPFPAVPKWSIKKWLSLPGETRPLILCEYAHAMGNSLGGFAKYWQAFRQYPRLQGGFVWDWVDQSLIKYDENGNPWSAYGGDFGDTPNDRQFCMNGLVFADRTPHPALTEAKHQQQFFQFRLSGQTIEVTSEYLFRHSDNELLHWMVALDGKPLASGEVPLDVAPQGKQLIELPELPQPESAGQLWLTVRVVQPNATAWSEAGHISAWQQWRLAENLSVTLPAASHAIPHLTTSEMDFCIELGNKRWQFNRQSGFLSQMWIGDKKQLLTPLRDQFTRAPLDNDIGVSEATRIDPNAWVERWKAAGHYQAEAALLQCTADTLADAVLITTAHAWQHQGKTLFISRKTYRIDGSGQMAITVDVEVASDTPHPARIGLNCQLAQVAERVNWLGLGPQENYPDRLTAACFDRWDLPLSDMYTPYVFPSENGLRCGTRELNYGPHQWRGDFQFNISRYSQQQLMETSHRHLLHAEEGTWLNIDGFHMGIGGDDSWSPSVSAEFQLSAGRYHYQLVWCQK

Turning to `CNc1ccc2oc(C[C@H]3O[C@@]4(CC[C@H]3C)O[C@H]([C@H](C)C(=O)c3ccc[nH]3)[C@H](C)C[C@H]4C)nc2c1C(=O)O`, the concentration for half-maximal inhibition (IC50) in assay [1] (dose range 1) was 10.9 µM; in assay [1] (setting [5]), 11.7 µM; in assay [1] (run 2, dose range 1) it was 12.4 µM; in assay [1] (run 3, dose range 1), greater than 80 µM; in assay [2] (CXCR6, dose range 1) it was 5.85 µM; in assay [2] (setting [6]), 8.6 µM. The IC50 in assay [2] (CXCR6, run 1, dose range 2) was 6.42 µM; in assay [2] (CXCR6, run 2, dose range 1), 7.09 µM; in assay [2] (CXCR6, run 2, dose range 2), 15 µM; in assay [3] (dose range 1) it was > 80 µM (inactive); in assay [3] (setting [5]), greater than 80 µM; in assay [4] (CCR6, dose range 1), 6.14 µM. Besides, the IC50 in assay [4] (setting [7]) was 6.15 µM; in assay [4] (CCR6, run 2, dose range 1), 6.16 µM.
Consider `O=C1C=CC2(C=C1)O[C@H](Cc1ccccc1)[C@@H](Cc1ccccc1)O2`, for which the IC50 was 7.98 µM in assay [1] (dose range 1); 8.39 µM in assay [1] (setting [5]); 8.95 µM in assay [1] (run 2, dose range 1); 8.25 µM in assay [1] (run 3, dose range 1); 8.93 µM in assay [2] (CXCR6, dose range 1); 8.35 µM in assay [2] (setting [6]). The IC50 in assay [2] (CXCR6, run 1, dose range 2) is 6.66 µM; in assay [2] (CXCR6, run 2, dose range 1), 7.5 µM; in assay [2] (CXCR6, run 2, dose range 2), 10.3 µM; in assay [3] (dose range 1) it was > 80 µM (inactive); in assay [3] (setting [5]), greater than 80 µM; in assay [4] (CCR6, dose range 1), 4.44 µM. Besides, the half-maximal inhibitory concentration (IC50) came out at 4.75 µM in assay [4] (setting [7]) and 5.06 µM in assay [4] (CCR6, run 2, dose range 1).
On to `O=[N+]([O-])c1c(Nc2ccc(O)cc2)cc(Cl)c2nonc12`, for which the IC50 in assay [1] (dose range 1) was 6.33 µM; in assay [1] (setting [5]), 8.66 µM; in assay [1] (run 2, dose range 1) it was 4.41 µM; in assay [1] (run 3, dose range 1), 15.2 µM; in assay [2] (CXCR6, dose range 1), 1.78 µM; in assay [2] (setting [6]), 2.71 µM. For the same molecule, the IC50 is 3.01 µM in assay [2] (CXCR6, run 1, dose range 2); 3.41 µM in assay [2] (CXCR6, run 2, dose range 1); 2.65 µM in assay [2] (CXCR6, run 2, dose range 2); 35 µM in assay [3] (dose range 1); 35 µM in assay [3] (setting [5]); 1.62 µM in assay [4] (CCR6, dose range 1). Moreover, the IC50 in assay [4] (setting [7]) is 1.74 µM; in assay [4] (CCR6, run 2, dose range 1), 1.85 µM.
In the case of `Cc1ccc2oc(/N=C(\N)NC(=O)C(C)(C)C)nc2c1`, the half-maximal inhibitory concentration (IC50) in assay [1] (dose range 1) was 19.8 µM; in assay [1] (setting [5]), 20.9 µM; in assay [1] (run 2, dose range 1), 19 µM; in assay [1] (run 3, dose range 1) it was 23.9 µM; in assay [2] (setting [6]), 16.7 µM; in assay [2] (CXCR6, run 2, dose range 1), 16 µM. In addition, the IC50 in assay [3] (dose range 1) is > 80 µM (inactive); in assay [3] (setting [5]), greater than 80 µM; in assay [4] (CCR6, dose range 1), 11.2 µM; in assay [4] (setting [7]), 12.3 µM; in assay [4] (CCR6, run 2, dose range 1), 13.4 µM. The IC50 result in assay [2] (CXCR6, dose range 1) is “inactive”. Moreover, in assay [2], the inhibition came to 106%.
In the case of `Fc1ccc(NC(=S)Nc2nccs2)cc1`, the IC50 in assay [1] (dose range 1) is 13.6 µM; in assay [1] (setting [5]), 13.7 µM; in assay [1] (run 2, dose range 1) it was 14.1 µM; in assay [1] (run 3, dose range 1) it was 13.3 µM; in assay [2] (setting [6]) it was 14.1 µM; in assay [2] (CXCR6, run 1, dose range 2), 8.52 µM. Besides, the half-maximal inhibitory concentration (IC50) in assay [2] (CXCR6, run 2, dose range 1) is 14 µM; in assay [2] (CXCR6, run 2, dose range 2), 13.3 µM; in assay [3] (dose range 1) it was > 80 µM (inactive); in assay [3] (setting [5]), greater than 80 µM; in assay [4] (CCR6, dose range 1), 10.8 µM; in assay [4] (setting [7]), 12.6 µM. The molecule also returned an IC50 in assay [4] (CCR6, run 2, dose range 1) of 14.3 µM. In assay [2] (CXCR6, dose range 1), the IC50 result is “inactive”.
`COc1ccc(CN2C(=O)C(Cc3ccccc3)Nc3ncnc(N4CCN(c5ccccc5)CC4)c32)cc1` (centres undefined): the IC50 was 6.61 µM in assay [1] (dose range 1); 9.3 µM in assay [1] (setting [5]); 9.95 µM in assay [1] (run 2, dose range 1); 11.3 µM in assay [1] (run 3, dose range 1); 8.37 µM in assay [2] (CXCR6, dose range 1); 5.48 µM in assay [2] (setting [6]). The IC50 in assay [2] (CXCR6, run 1, dose range 2) is 3.14 µM; in assay [2] (CXCR6, run 2, dose range 1), 4.54 µM; in assay [2] (CXCR6, run 2, dose range 2), 5.88 µM; in assay [3] (dose range 1), 7.82 µM; in assay [3] (setting [5]) it was 7.82 µM; in assay [4] (CCR6, dose range 1), 4.6 µM. In addition, the half-inhibitory concentration (IC50) in assay [4] (setting [7]) stood at 4.33 µM; in assay [4] (CCR6, run 2, dose range 1), 4.05 µM.
Consider `C/C(=N\NC(=O)Cn1c(-c2ccccn2)nc2ccccc21)c1ccccc1`, for which the half-inhibitory concentration (IC50) was 23.9 µM in assay [1] (dose range 1); 21.3 µM in assay [1] (setting [5]); 16.1 µM in assay [1] (run 2, dose range 1); 23.9 µM in assay [1] (run 3, dose range 1); 18.4 µM in assay [2] (setting [6]); 9.71 µM in assay [2] (CXCR6, run 1, dose range 2). Also, the half-maximal inhibitory concentration (IC50) is 29.4 µM in assay [2] (CXCR6, run 2, dose range 1); 8.43 µM in assay [2] (CXCR6, run 2, dose range 2); 34 µM in assay [3] (dose range 1); 34 µM in assay [3] (setting [5]); 13.7 µM in assay [4] (CCR6, dose range 1); 16.2 µM in assay [4] (setting [7]). This molecule returned an IC50 in assay [4] (CCR6, run 2, dose range 1) of 18.7 µM. Also, the IC50 entry in assay [2] (CXCR6, dose range 1) was “inactive”.
For the molecule `Cc1ccccc1Oc1cc(-n2ncc(Cl)c(Cl)c2=O)ncn1`, the IC50 in assay [1] (dose range 1) was 3.31 µM; in assay [1] (setting [5]), 4.62 µM; in assay [1] (run 2, dose range 1), 5.92 µM; in assay [1] (run 3, dose range 1), greater than 80 µM; in assay [2] (CXCR6, dose range 1), 1.57 µM; in assay [2] (setting [6]) it was 1.48 µM. Besides, the IC50 in assay [2] (CXCR6, run 2, dose range 1) was 1.38 µM; in assay [3] (dose range 1), > 80 µM (inactive); in assay [3] (setting [5]) it was greater than 80 µM; in assay [4] (CCR6, dose range 1) it was 1.27 µM; in assay [4] (setting [7]), 1.51 µM; in assay [4] (CCR6, run 2, dose range 1), 1.75 µM. The inhibition in assay [2] is 105%.
As for `CC(=O)OCCNc1cc(SCc2ccco2)c2nonc2c1[N+](=O)[O-]`, the IC50 in assay [1] (dose range 1) was 21.1 µM; in assay [1] (setting [5]), 18.8 µM; in assay [1] (run 2, dose range 1), 17.8 µM; in assay [1] (run 3, dose range 1), 17.5 µM; in assay [2] (setting [6]), 15.4 µM; in assay [2] (CXCR6, run 2, dose range 1), 16.6 µM. The IC50 in assay [3] (dose range 1) was > 80 µM (inactive); in assay [3] (setting [5]) it was greater than 80 µM; in assay [4] (CCR6, dose range 1), 13.8 µM; in assay [4] (setting [7]), 14 µM; in assay [4] (CCR6, run 2, dose range 1) it was 14.2 µM. Further, in assay [2] (CXCR6, dose range 1), the IC50 result was “inactive”. Moreover, the inhibition in assay [2] amounted to 74.8%.
As to `O=C(Cn1sc2ccccc2c1=O)NC12CC3CC(CC(C3)C1)C2`, the IC50 in assay [1] (dose range 1) is 2.02 µM; in assay [1] (setting [5]), 3.22 µM; in assay [1] (run 2, dose range 1) it was 5.54 µM; in assay [1] (run 3, dose range 1), 2.1 µM; in assay [2] (CXCR6, dose range 1), 2.69 µM; in assay [2] (setting [6]) it was 2.42 µM. Moreover, the half-maximal inhibitory concentration (IC50) is 2.16 µM in assay [2] (CXCR6, run 2, dose range 1); > 80 µM (inactive) in assay [3] (dose range 1); greater than 80 µM in assay [3] (setting [5]); 1.54 µM in assay [4] (CCR6, dose range 1); 1.66 µM in assay [4] (setting [7]); 1.78 µM in assay [4] (CCR6, run 2, dose range 1). Also, the inhibition in assay [2] was 70.8%.
`CC(=O)OCCNc1cc(Sc2nc3ccccc3[nH]2)c2nonc2c1[N+](=O)[O-]`: the IC50 in assay [1] (dose range 1) is 9.71 µM; in assay [1] (setting [5]), 8.18 µM; in assay [1] (run 2, dose range 1) it was 7.17 µM; in assay [1] (run 3, dose range 1), 7.67 µM; in assay [2] (CXCR6, dose range 1), 6.36 µM; in assay [2] (setting [6]), 6.45 µM. For the same molecule, the IC50 in assay [2] (CXCR6, run 1, dose range 2) was 7.34 µM; in assay [2] (CXCR6, run 2, dose range 1) it was 6.05 µM; in assay [2] (CXCR6, run 2, dose range 2) it was 6.06 µM; in assay [3] (dose range 1), 29.8 µM; in assay [3] (setting [5]) it was 29.8 µM; in assay [4] (CCR6, dose range 1), 5.52 µM. Also, the half-maximal inhibitory concentration (IC50) came out at 5.34 µM in assay [4] (setting [7]) and 5.16 µM in assay [4] (CCR6, run 2, dose range 1).
In the case of `C=C1C(=O)C23CCC4C(C)(C(=O)OC)CCCC4(C)C2CCC1(O)C3` (centres undefined), the IC50 was 9.66 µM in assay [1] (dose range 1); 8.26 µM in assay [1] (setting [5]); 7.57 µM in assay [1] (run 2, dose range 1); 7.54 µM in assay [1] (run 3, dose range 1); 5.72 µM in assay [2] (CXCR6, dose range 1); 6.19 µM in assay [2] (setting [6]). Moreover, the IC50 was 6.35 µM in assay [2] (CXCR6, run 1, dose range 2); 5.95 µM in assay [2] (CXCR6, run 2, dose range 1); 6.77 µM in assay [2] (CXCR6, run 2, dose range 2); > 80 µM (inactive) in assay [3] (dose range 1); greater than 80 µM in assay [3] (setting [5]); 5.19 µM in assay [4] (CCR6, dose range 1). The IC50 in assay [4] (setting [7]) worked out at 5.45 µM; in assay [4] (CCR6, run 2, dose range 1), 5.72 µM.

Values taken from PubChem BioAssay AID624129 (Sanford-Burnham Center for Chemical Genomics, 2012).
